Results as given in US20260174786A1, “A NITROGEN-CONTAINING SPIROCYCLIC COMPOUND, PHARMACEUTICAL COMPOSITION AND USE THEREOF” (Prime Gene Therapeutics Co., Ltd., priority 2022, published 2026).

Target: T1, hTRPV3 (Homo sapiens, UniProt Q8NET8)
T1 construct: expressed in transfected cells; host or cells: HEK-293
T1 sequence (Q8NET8 1-790): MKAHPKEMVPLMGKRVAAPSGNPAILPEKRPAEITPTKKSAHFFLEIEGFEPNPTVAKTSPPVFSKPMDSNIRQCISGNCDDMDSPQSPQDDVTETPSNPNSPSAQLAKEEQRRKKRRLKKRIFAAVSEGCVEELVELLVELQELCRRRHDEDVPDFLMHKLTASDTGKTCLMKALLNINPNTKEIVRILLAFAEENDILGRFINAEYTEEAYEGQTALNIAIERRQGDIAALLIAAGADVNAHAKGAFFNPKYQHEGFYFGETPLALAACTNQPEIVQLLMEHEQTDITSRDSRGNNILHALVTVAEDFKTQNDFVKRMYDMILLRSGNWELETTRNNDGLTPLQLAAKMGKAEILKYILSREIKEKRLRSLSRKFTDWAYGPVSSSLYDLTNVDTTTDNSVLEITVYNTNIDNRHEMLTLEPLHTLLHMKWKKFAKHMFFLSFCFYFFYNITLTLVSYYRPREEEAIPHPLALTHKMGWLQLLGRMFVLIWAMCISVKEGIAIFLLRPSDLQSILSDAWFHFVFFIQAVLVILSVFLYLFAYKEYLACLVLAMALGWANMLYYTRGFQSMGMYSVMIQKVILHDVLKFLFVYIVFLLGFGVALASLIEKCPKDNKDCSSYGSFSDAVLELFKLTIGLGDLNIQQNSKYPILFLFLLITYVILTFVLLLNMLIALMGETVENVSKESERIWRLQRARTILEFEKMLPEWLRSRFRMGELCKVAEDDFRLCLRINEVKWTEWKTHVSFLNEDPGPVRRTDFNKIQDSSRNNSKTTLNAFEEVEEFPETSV
Assay: Whole cell patch clamp inhibition rate test on HEK-293 cells instantaneously expressing TRPV3
Assay type: cell-based
Conditions: HEK293; hTRPV3, single concentration 0.3 μM
Protocol: In this study, HEK-293 cells instantaneously expressing TRPV3 were used for experimental detection.
The operation steps are as follows:
The cells were cultured in DMEM medium containing 10% fetal bovine serum at a temperature of 37° C. and a carbon dioxide concentration of 5%.
Day 1: Cells were inoculated into a 6-well plate with 5×10^5 cells per well.
Day 2: Transfection was performed using Lipofectamine 3000 transfection reagent, with a plasmid to transfection reagent ratio of 1 μg: 2 μL. The total amount of plasmid used per well was 3 μg. Specifically, two sterile centrifuge tubes were taken and 100 μL Opti-MEM was added to each tube. 6 μL Lipofectamine 3000 was added to one tube and mixed well; and 3 μg plasmid was added to another tube and mixed well, and then 6 μL P3000 was added and mixed well; Subsequently, the diluted plasmid DNA was added to diluted Lipofectamine 3000 and incubated at room temperature for 10-15 min. DNA liposome complex was dropped into the cells, shaked gently and mixed well, and then cultured in an incubator. The liquid was changed after 4 to 6 h.
Day 3: The cells were digested and seeded into 24 well plates with pre-placed cover slides, with 8×10^3 cells per well.
Day 4: Patch clamp testing was performed.
The voltage stimulation protocol for recording TRPV3 current using whole cell patch clamp is as follows: after forming a whole cell seal, a cell membrane voltage clamp was set at −80 mV. Firstly, a membrane potential was recorded at 0 mV, and then a voltage was command to start from −100 mV, to depolarize in the form of Ramp to 100 mV within 100 ms, and finally restore to 0 mV. Data collection was repeated every 5 seconds to observe the inhibitory effect of pharmaceutical on peak current. Experimental data was collected by EPC 10 amplifier (HEKA) and stored in PatchMaster (HEKA) software.
A microelectrode puller was used to pull the capillary glass tube into a recording electrode. The electrode filled with intracellular fluid was inserted into a microelectrode holder, and a microelectrode manipulator was operated under an inverted microscope to immerse the electrode in extracellular fluid and an electrode resistance (Rpip) was recorded. The electrode was brought into contact with the cell surface and a negative pressure suction was applied to form a high resistance seal (GΩ). At this point, a fast capacitance compensation was performed, and negative pressure was continued to apply in order to break the cell membrane, so that a whole cell recording mode was formed. Then, a slow capacitance compensation was performed and experimental parameters such as film capacitance (Cm) and series resistance (Rs) were recorded. No leakage compensation was provided.
When the TRPV3 current recorded by the whole cell had stabilized, administration was started. Each pharmaceutical concentration acted for 5 minutes (or until the current stabilized) before detecting the next concentration. A plurality of concentrations was tested for each test compound. A cover glass covered with cells was placed in a recording bath under an inverted microscope. A blank control extracellular solution and a working fluid for the compound to be tested sequentially flowed through the recording bath from low concentration to high concentration using gravity perfusion to act on the cells. Liquid exchange was performed using a peristaltic pump during recording. The current detected by each cell in the extracellular fluid without the compound served as its own control group. Each concentration was independently tested twice using at least two cells. All electrophysiological tests were conducted at room temperature.

| Structure (SMILES) | inhibition at 0.3 µM [%] |
| --- | --- |
| O=C(c1ncccc1Cl)N1CCC2(CC(O)c3cc(-c4ccccc4C4CC4)ccc32)C1 (stereo not shown) [Example 52, (3-chloropyridin-2-yl)(5-(2-cyclopropylphenyl)-3-hydroxy-2,3-dihydrospiro[indene-1,3′-pyrrolidine]-1′-yl)ketone] | 50 to 70 |
| O=C(c1cccc(C2CC2)n1)N1CC[C@@]2(C[C@@H](O)c3cc(-c4ccccc4C4CC4)ccc32)C1 [Example 37, ((1S,3R)-5-(2-cyclopropylphenyl)-3-hydroxy-2,3-dihydrospiro[indene-1,3′-pyrrolidine]-1′-yl)(6-cyclopropylpyridin-2-yl) ketone] | 70 to 100 |
| CC(C)c1ccccc1-c1ccc2c(c1)C(O)CC21CCN(C(=O)c2ccc(Cl)cn2)C1 (stereo not shown) [Example 58, (5-chloropyridin-2-yl)(3-hydroxy-5-(2-isopropylphenyl)-2,3-dihydrospiro[indene-1,3′-pyrrolidine]-1′-yl)ketone] | 70 to 100 |
| O=C(c1ccc(F)cn1)N1CCC2(C1)CC(O)(C(F)(F)F)c1cc(-c3ccccc3C3CC3)ccc12 (stereo not shown) [Example 7, (5-(2-cyclopropylphenyl)-3-hydroxy-3-(trifluoromethyl)-2,3-dihydrospiro[indene-1,3′-pyrrolidine]-1′-yl)(5-fluoropyridin-2-yl) ketone] | < 25 |
| O=C(c1ccc(F)c(Cl)n1)N1CCC2(CC(O)c3cc(-c4ccccc4C4CC4)ccc32)C1 (stereo not shown) [Example 54, (6-chloro-5-fluoropyridin-2-yl)(5-(2-cyclopropylphenyl)-3-hydroxy-2,3-dihydrospiro[indene-1,3′-pyrrolidine]-1′-yl)ketone] | 70 to 100 |
| O=C(c1ccc(Cl)cn1)N1CCC2(CC(O)c3cc(-c4ccccc4C4CC4)ccc32)C1 (stereo not shown) [Example 14, (5-chloropyridin-2-yl)(5-(2-cyclopropylphenyl)-3-hydroxy-2,3-dihydrospiro[indene-1,3′-pyrrolidine]-1′-yl) ketone] | 70 to 100 |
| OC1CC2(CCN(c3cnc4cc(F)ccn34)C2)c2ccc(-c3ccccc3C3CC3)cc21 (stereo not shown) [Example 153, 5-(2-cyclopropylphenyl)-1′-(7-fluoroimidazo[1,2-a]pyridin-3-yl)-2,3-dihydrospiro[indene-1,3′-pyrrolidine]-3-ol] | 70 to 100 |
| CCOc1ccccc1-c1ccc2c(c1)C(O)CC21CCN(C(=O)c2ccc(F)cn2)C1 (stereo not shown) [Example 86, (5-(2-ethoxyphenyl)-3-hydroxy-2,3-dihydrospiro[indene-1,3′-pyrrolidine]-1′-yl)(5-fluoropyridin-2-yl) ketone] | 50 to 70 |
| CC(C)c1ccccc1Sc1ccc2c(c1)C(O)CC21CCN(C(=O)c2ccc(F)cn2)C1 (stereo not shown) [Example 106, (5-fluoropyridin-2-yl)(3-hydroxy-5-((2-isopropylphenyl)thio)-2,3-dihydrospiro[indene-1,3′-pyrrolidine]-1′-yl) ketone] | 70 to 100 |
| CC(C)c1ccccc1Oc1ccc2c(c1)C(O)CC21CCN(C(=O)c2ccc(F)cn2)C1 (stereo not shown) [Example 104, (5-fluoropyridin-2-yl)(3-hydroxy-5-(2-isopropylphenyloxy)-2,3-dihydrospiro[indene-1,3′-pyrrolidine]-1′-yl) ketone] | 70 to 100 |
| CC(C)c1ccccc1-c1ccc2c(c1)[C@@H](O)C[C@@]21CCN(C(=O)c2ccc(F)cn2)C1 [Example 28] | < 25 |
| O=C(c1ccc(Cl)cn1)N1CCC2(CCC(O)c3cc(-c4ccccc4C4CC4)ccc32)C1 (stereo not shown) [Example 2, (5-chloropyridin-2-yl)(6-(2-cyclopropylphenyl)-4-hydroxy-3,4-dihydro-2H-spiro[naphthalene-1,3′-pyrrolidine]-1′-yl) ketone] | < 25 |
| O=C(c1ccc(F)cn1)N1CCC2(CC(O)c3cc(-c4cccc5ccccc45)ccc32)C1 (stereo not shown) [Example 92, (5-fluoropyridin-2-yl)(3-hydroxy-5-(naphthalen-1-yl)-2,3-dihydrospiro[indene-1,3′-pyrrolidine]-1′-yl) ketone] | 70 to 100 |
| CC(C)c1ccccc1-c1ccc2c(c1)C(O)CC21CCN(C(=O)c2ccc(F)cn2)CC1 (stereo not shown) [Example 4, (5-fluoropyridin-2-yl)(3-hydroxy-5-(2-isopropylphenyl)-2,3-dihydrospiro[indene-1,4′-piperidine]-1′-yl) ketone] | 25 to 50 |
| O=C(c1csc(Cl)n1)N1CC[C@@]2(C[C@H](O)c3cc(-c4ccccc4C4CC4)ccc32)C1 [Example 31, (2-chlorothiazol-4-yl)((1S,3S)-5-(2-cyclopropylphenyl)-3-hydroxy-2,3-dihydrospiro[indene-1,3′-pyrrolidine]-1′-yl)ketone] | < 25 |
| CC(C)c1ccccc1-c1ccc2c(c1)C(CO)CC21CCN(C(=O)c2ccc(F)cn2)C1 (stereo not shown) [Example 126, (5-fluoropyridin-2-yl)(3-(methylol)-5-(2-isopropylphenyl)-2,3-dihydrospiro[indene-1,3′-pyrrolidine]-1′-yl) ketone] | 70 to 100 |
| CNc1cncc(C(=O)N2CCC3(CC(O)c4cc(-c5ccccc5C5CC5)ccc43)C2)n1 (stereo not shown) [Example 48, (5-(2-cyclopropylphenyl)-3-hydroxy-2,3-dihydrospiro[indene-1,3′-pyrrolidine]-1′-yl)(6-(methylamino)pyrazin-2-yl) ketone] | 70 to 100 |
| O=C(c1cccc(C2CC2)n1)N1CC[C@@]2(C[C@H](O)c3cc(-c4ccccc4C4CC4)ccc32)C1 [Example 39, ((1S,3S)-5-(2-cyclopropylphenyl)-3-hydroxy-2,3-dihydrospiro[indene-1,3′-pyrrolidine]-1′-yl)(6-cyclopropylpyridin-2-yl) ketone] | < 25 |
| CC(C)(C#N)c1ccccc1-c1ccc2c(c1)C(O)CC21CCN(C(=O)c2ccc(F)cn2)C1 (stereo not shown) [Example 164, 2-(2-(1′-(5-fluoropyridoyl)-3-hydroxy-2,3-dihydrospiro[indene-1,3′-pyrrolidine]-5-yl)phenyl)-2-methyl propionitrile] | 50 to 70 |
| COC(=O)C1CC2(CCN(C(=O)c3ccc(F)cn3)C2)c2ccc(-c3ccccc3C(C)C)cc21 (stereo not shown) [Example 130, methyl 1′-(5-fluoropyridoyl)-5-(2-isopropylphenyl)-2,3-dihydrospiro[indene-1,3′-pyrrolidine]-3-carboxylate] | < 25 |
| O=C(c1ccc(F)cn1)N1CCC2(CC(O)c3cc(-c4cccc5c4CCC5)ccc32)C1 (stereo not shown) [Example 87, (5-(2,3-dihydro-1H-indene-4-yl)-3-hydroxy-2,3-dihydrospiro[indene-1,3′-pyrrolidine]-1′-yl)(5-fluoropyridin-2-yl) ketone] | 50 to 70 |
| CC(C)c1ccccc1-c1ccc2c(c1)C(O)CC21CCN(C(=O)c2ccncn2)C1 (stereo not shown) [Example 67, (3-hydroxy-5-(2-isopropylphenyl)-2,3-dihydrospiro[indene-1,3′-pyrrolidine]-1′-yl)(pyrimidin-4-yl)ketone] | 50 to 70 |
